Values after ≈ are worked out from the molar mass of the structure shown.
What was measured:
[1] = molecular target: E. coli RNA polymerase σ70 holoenzyme (Escherichia coli (strain K12), UniProt P0A8T7+P0A8V2); assay: Fluorescence-detected RNA polymerase assay, E. coli RNAP; assay type: biochemical
Experimental: (§1) Fluorescence-detected RNA polymerase assays with E. coli RNA polymerase were performed by a modification of the procedure of Kuhlman et al., 2004 [Kuhlman, P., Duff, H. & Galant, A. (2004) A fluorescence-based assay for multisubunit DNA-dependent RNA polymerases. Anal. Biochem. 324, 183-190]. Reaction mixtures contained (20 μl): 0-100 nM test compound, 75 nM E. coli RNA polymerase σ^70 holoenzyme, 20 nM 384 bp DNA fragment containing the bacteriophage T4 N25 promoter, 100 μM ATP, 100 μM GTP, 100 μM UTP, 100 μM CTP, 50 mM Tris-HCl, pH 8.0, 100 mM KCl, 10 mM MgCl2, 1 mM DTT, 10 μg/ml bovine serum albumin, and 5.5% glycerol. Reaction components other than DNA and NTPs were pre-incubated for 10 min at 37° C. Reactions were carried out by addition of DNA and incubation for 5 min at 37° C., followed by addition of NTPs and incubation for 60 min at 37° C. DNA was removed by addition of 1 μl 5 mM CaCl2 and 2 U DNaseI (Ambion, Inc.), followed by incubation for 90 min at 37° C. RNA was quantified by addition of 100 μl RiboGreen RNA Quantitation Reagent (Invitrogen, Inc.; 1:500 dilution in Tris-HCl, pH 8.0, 1 mM EDTA), followed by incubation for 10 min at 25° C., followed by measurement of fluorescence intensity [excitation wavelength=485 nm and emission wavelength=535 nm; QuantaMaster QM1 spectrofluorometer (PTI, Inc.)]. IC50 is defined as the concentration of inhibitor resulting in 50% inhibition of RNA polymerase activity.

[2] = molecular target: M. tuberculosis RNA polymerase core enzyme + σA (Mycobacterium tuberculosis (strain ATCC 25618 / H37Rv), UniProt P9WGY7+P9WGY9); assay: Fluorescence-detected RNA polymerase assay, M. tuberculosis RNAP; assay type: biochemical
Experimental: as §1
(§2) Fluorescence-detected RNA polymerase assays with M. tuberculosis RNA polymerase were performed as in Example 21.1, using reaction mixtures containing (20 μl): 0-100 nM test compound, 75 nM M. tuberculosis RNA polymerase core enzyme, 300 nM M. tuberculosis σ^A, 20 nM 384 bp DNA fragment containing the bacteriophage T4 N25 promoter, 100 μM ATP, 100 μM GTP, 100 μM UTP, 100 μM CTP, 40 mM Tris-HCl, pH 8.0, 80 mM NaCl, 5 mM MgCl2, 2.5 mM DTT, and 12.7% glycerol. IC50 is defined as the concentration of inhibitor resulting in 50% inhibition of RNA polymerase activity.

[3] = molecular target: S. aureus RNA polymerase core enzyme + σA (Staphylococcus aureus (strain NCTC 8325 / PS 47), UniProt P47768+Q2G0N5); assay: Fluorescence-detected RNA polymerase assay, S. aureus RNAP; assay type: biochemical
Experimental: as §1
as §2, with “S. aureus” for “M. tuberculosis”

[4] = system: Bacillus anthracis Vollum-1b; assay: microbe, parasite or virus in culture; assay type: cell-based; settings: VOLLUM1B, read-out: MIC B. anthracis Vollum-1b
[5] = system: Francisella tularensis SCHU4; assay: microbe, parasite or virus in culture; assay type: cell-based; settings: SCHU4, read-out: MIC F. tularensis SCHU4
[6] = system: Mycobacterium tuberculosis H37Rv; assay: MIC, microplate Alamar Blue assay; settings: read-out: MIC M. tuberculosis H37Rv
[7] = system: Staphylococcus aureus ATCC 12600; assay: MIC, spiral gradient endpoint assay; settings: ATCC12600, read-out: MIC S. aureus 12600
[8] = system: Staphylococcus aureus ATCC 13709 MSSA; assay: MIC, spiral gradient endpoint assay; settings: read-out: MIC S. aureus 13709
[9] = system: Staphylococcus aureus BAA-1707 MRSA (MW2); assay: MIC, spiral gradient endpoint assay; settings: read-out: MIC S. aureus MRSA 1707
[10] = system: Staphylococcus aureus BAA-1717 MRSA (USA300); assay: MIC, spiral gradient endpoint assay; settings: read-out: MIC S. aureus MRSA 1717
[11] = system: Enterococcus faecalis ATCC 19433; assay: MIC, spiral gradient endpoint assay; settings: ATCC19433, read-out: MIC E. faecalis 19433
[12] = system: Enterococcus faecium ATCC 19434; assay: MIC, spiral gradient endpoint assay; settings: ATCC19434, read-out: MIC E. faecium 19434
[13] = system: Escherichia coli D21f2tolC; assay: MIC, spiral gradient endpoint assay; settings: read-out: MIC E. coli D21f2tolC
[14] = system: Streptococcus pneumoniae ATCC 49619; assay: MIC, spiral gradient endpoint assay (GC II agar, 5% CO2); settings: ATCC49619, read-out: MIC S. pneumoniae 49619
[15] = system: Streptococcus pyogenes ATCC 12344; assay: as above; settings: ATCC12344, read-out: MIC S. pyogenes 12344
[16] = system: Moraxella catarrhalis ATCC 25238; assay: as above; settings: ATCC25238, read-out: MIC M. catarrhalis 25238

SMILES	IC50 [1] [µM]	IC50 [2] [µM]	IC50 [3] [µM]	MIC [4] [µg/mL]	MIC [5] [µg/mL]	MIC [6] [µg/mL]	MIC [7] [µg/mL]	MIC [8] [µg/mL]	MIC [9] [µg/mL]	MIC [10] [µg/mL]	MIC [11] [µg/mL]	MIC [12] [µg/mL]	MIC [13] [µg/mL]	MIC [14] [µg/mL]	MIC [15] [µg/mL]	MIC [16] [µg/mL]
CC(C)CCC1=C(O)C(CCC(C)C)(CCC(C)C)C(=O)C(C(=O)CCc2ccccc2)=C1O [Compound 15, 3,5-dihydroxy-2-(3-phenylpropanoyl)-4,6,6-triisopentylcyclohexa-2,4-dienone]	3.5	2.6	11	0.098 (≈ 0.209 µM)	0.19 (≈ 0.405 µM)	50 (≈ 107 µM)	0.5 (≈ 1.07 µM)	0.5 (≈ 1.07 µM)	0.4 (≈ 0.853 µM)	0.5 (≈ 1.07 µM)	1 (≈ 2.13 µM)	1.5 (≈ 3.2 µM)	4 (≈ 8.53 µM)	12 (≈ 25.6 µM)	12 (≈ 25.6 µM)	25 (≈ 53.3 µM)
CCC1=C(O)C(CC)(CC)C(=O)C(C(=O)CCc2ccccc2)=C1O [Compound 16, 3,5-dihydroxy-2-(3-phenylpropanoyl)-4,6,6-triethylcyclohexa-2,4-dienone]	> 400	> 400	> 400			> 50	4 (≈ 11.7 µM)	6 (≈ 17.5 µM)	6 (≈ 17.5 µM)	8 (≈ 23.4 µM)	19 (≈ 55.5 µM)	5 (≈ 14.6 µM)	5 (≈ 14.6 µM)	15 (≈ 43.8 µM)	19 (≈ 55.5 µM)	> 40
CCCC1=C(O)C(CCC)(CCC)C(=O)C(C(=O)CCc2ccccc2)=C1O [Compound 17, 3,5-dihydroxy-2-(3-phenylpropanoyl)-4,6,6-tripropylcyclohexa-2,4-dienone]	70	140	> 400			> 50	1 (≈ 2.6 µM)	2 (≈ 5.2 µM)	2 (≈ 5.2 µM)	2 (≈ 5.2 µM)	3 (≈ 7.8 µM)	1 (≈ 2.6 µM)	1.3 (≈ 3.38 µM)	15 (≈ 39 µM)	19 (≈ 49.4 µM)	> 40
CCCCC1=C(O)C(CCCC)(CCCC)C(=O)C(C(=O)CCc2ccccc2)=C1O [Compound 18, 3,5-dihydroxy-2-(3-phenylpropanoyl)-4,6,6-tributylcyclohexa-2,4-dienone]	33	22	80	0.049 (≈ 0.115 µM)	25 (≈ 58.6 µM)	50 (≈ 117 µM)	< 0.5	0.8 (≈ 1.88 µM)	0.8 (≈ 1.88 µM)	< 0.5	11 (≈ 25.8 µM)	0.6 (≈ 1.41 µM)	1.2 (≈ 2.81 µM)	9.3 (≈ 21.8 µM)	12 (≈ 28.1 µM)	24 (≈ 56.3 µM)
CCCCCC1=C(O)C(CCCCC)(CCCCC)C(=O)C(C(=O)CCc2ccccc2)=C1O [Compound 19, 3,5-dihydroxy-2-(3-phenylpropanoyl)-4,6,6-tripentylcyclohexa-2,4-dienone]	7.3	4.1	13	0.049 (≈ 0.105 µM)	0.39 (≈ 0.832 µM)	50 (≈ 107 µM)	2 (≈ 4.27 µM)	3 (≈ 6.4 µM)	0.7 (≈ 1.49 µM)	1 (≈ 2.13 µM)	9 (≈ 19.2 µM)	2 (≈ 4.27 µM)	14 (≈ 29.9 µM)	15 (≈ 32 µM)	15 (≈ 32 µM)	19 (≈ 40.5 µM)
CC(C)CCC1=C(O)C(CCC(C)C)(CCC(C)C)C(=O)C(C(=O)C(C)Cc2ccccc2)=C1O (centres unmarked) [Compound 20, 3,5-dihydroxy-2-(2-methyl-3-phenylpropanoyl)-4,6,6-triisopentylcyclohexa-2,4-dienone]	12	7.3	13	0.098 (≈ 0.203 µM)	0.78 (≈ 1.62 µM)	50 (≈ 104 µM)	0.4 (≈ 0.829 µM)	0.7 (≈ 1.45 µM)	0.7 (≈ 1.45 µM)	0.7 (≈ 1.45 µM)	0.7 (≈ 1.45 µM)	0.6 (≈ 1.24 µM)	6 (≈ 12.4 µM)	19 (≈ 39.4 µM)	15 (≈ 31.1 µM)	24 (≈ 49.7 µM)
